From publication PMC2864270 (PLoS Neglected Tropical Diseases, 2010) come the findings set out here.

A short description of data set [1]: Microsomal stability assay, human liver microsomes. Format: in vitro ADME. The settings on record: 2 µM compound, 0.5 mg/mL microsomes; for parent compound remaining after 30 minutes, human liver microsomes: NADPH. On the procedure:
(§1) Compounds at a concentration of 2 µM in 0.2% DMSO were incubated with 0.5 mg/mL rat (Sprague-Dawley Rat, BD Gentest) and human (human pool donors, BD Gentest) liver microsomes in potassium phosphate buffer in a reaction started by the addition of NADPH and stopped either immediately or at 5, 10, 30, 60 or 120 minutes for a precise estimate of microsomal stability. The corresponding loss of the parent compound was determined by a quadrupole liquid chromatography-mass spectrometry (LC-MS) with diode-array detection (Agilent 1200, Agilent Technology). The samples were passed through trapping cartridges (Security Guard Cartridge, Gemini C18, 4×2.0 mm, 3 µm, Phenomenex) followed by an analytical column (Gemini C18, 50×2.0 mm, 3 µm, Phenomenex). Positive electrospray ionization (ESI+) was employed for this analysis. The mobile phases A (water with 0.1% formic acid) and B (acetonitrile with 0.1% formic acid) were used at a flow rate of 0.3 mL/min. Gradient elution started with 95% mobile phase A and 5% mobile phase B. Elution was changed to a linear gradient until 50% A and B for 1 min. This condition was held for 0.5 min, then increased to 95% B over 0.5 min, and held for 1.5 min. Then, the elution gradient returned to 95% A and 5% B over 0.5 min, was held for the remaining 3.5 min. The percentage of the remaining compound was calculated by comparison with the initial quantity at 0 min. Half-life was calculated based on first-order reaction kinetics.

The target in data set [2] is CYP3A4 (Homo sapiens, UniProt P08684). The experiment in a line: CYP450 inhibition assay, fluorescent probe BFC. To be noted: for IC50: individual human P450s, eight-point curve. The data set is classed as in vitro ADME. As for the experimental part: (§2) Individual fluorescent probe substrates were used with individual rhCYP isozymes and fluorescence detection according to a previously published method. Probe substrates were 7-benzyloxy-4-(trifluoromethyl)-coumarin (BFC) for CYP3A4 and 3-[2-(N,N-diethyl-N-methylammonium)ethyl]-7-methoxy-4-methylcoumarin (AMMC) for CYP2D6 in 0.5% DMSO. IC50 was determined using an eight-point concentration curve with three-fold serial dilutions. Victor3™ (Perkin Elmer) was used for quantification in the fluorescent method (Perkin Elmer Life and Analytical Sciences).
Chain of CYP3A4 (P08684 whole entry): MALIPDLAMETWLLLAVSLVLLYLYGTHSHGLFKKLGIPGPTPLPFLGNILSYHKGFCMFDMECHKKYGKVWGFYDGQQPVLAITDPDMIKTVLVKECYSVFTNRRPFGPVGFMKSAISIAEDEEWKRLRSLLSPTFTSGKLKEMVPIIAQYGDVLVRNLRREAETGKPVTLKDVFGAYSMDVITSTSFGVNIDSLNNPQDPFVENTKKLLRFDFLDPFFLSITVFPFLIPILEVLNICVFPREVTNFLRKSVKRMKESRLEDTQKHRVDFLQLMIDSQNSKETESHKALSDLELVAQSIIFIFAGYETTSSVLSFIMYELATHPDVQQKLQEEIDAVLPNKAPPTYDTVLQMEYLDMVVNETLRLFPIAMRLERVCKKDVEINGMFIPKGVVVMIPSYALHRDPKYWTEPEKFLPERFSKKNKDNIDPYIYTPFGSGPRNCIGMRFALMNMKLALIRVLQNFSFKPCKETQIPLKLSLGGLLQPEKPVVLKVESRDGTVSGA

Data set [3] can be described thus: Microsomal stability assay, rat liver microsomes. Format: in vitro ADME, Sprague-Dawley Rat. To be noted: 2 µM compound, 0.5 mg/mL microsomes; for half-life at 2 µM: Sprague-Dawley, rat, liver microsomes, first-order kinetics, read-out: theoretical half-life, rat liver microsomes. On the procedure:
as §1
A general note: Liver microsomes are a subcellular fraction often used to study metabolism.

Data set [4] deals with CYP2D6 (Homo sapiens, UniProt P10635). The experiment in a line: CYP450 inhibition assay, fluorescent probe AMMC. To be noted: for IC50: individual human P450s, eight-point curve. The data set is classed as in vitro ADME. On the procedure: as §2
Chain of CYP2D6 (P10635 whole entry): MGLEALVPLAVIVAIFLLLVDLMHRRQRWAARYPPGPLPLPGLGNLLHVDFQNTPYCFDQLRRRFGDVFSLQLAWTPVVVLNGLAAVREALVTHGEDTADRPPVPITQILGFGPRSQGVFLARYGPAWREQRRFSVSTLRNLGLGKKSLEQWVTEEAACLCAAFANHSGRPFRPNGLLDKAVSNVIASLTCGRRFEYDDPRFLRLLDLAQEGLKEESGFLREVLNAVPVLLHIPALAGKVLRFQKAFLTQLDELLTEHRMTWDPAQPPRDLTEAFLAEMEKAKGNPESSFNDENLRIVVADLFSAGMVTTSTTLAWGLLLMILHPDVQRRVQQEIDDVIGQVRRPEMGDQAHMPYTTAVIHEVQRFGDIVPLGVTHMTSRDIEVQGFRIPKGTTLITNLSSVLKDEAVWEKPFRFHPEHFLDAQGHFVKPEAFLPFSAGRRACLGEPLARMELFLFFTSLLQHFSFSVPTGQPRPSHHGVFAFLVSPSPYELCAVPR

`COc1cc(/C=N/NC(=O)c2cccc(C)c2O)ccc1OCc1ccccc1` [CA272]: in data set [1], the “parent compound remaining after 30 minutes, human liver microsomes” value was determined as 77.8%. In addition, the half-life at 2 µM in data set [1] (human, liver microsomes, first-order kinetics, read-out: theoretical half-life, human liver microsomes) came to 79.4 min; in data set [3], 31.8 min. Moreover, the EC50 in data set [2] is 3.41 µM; in data set [4], greater than 10 µM. Further, the figures for the half-maximal inhibitory concentration (IC50) in data set [2] and in data set [4] were 3.41 µM and greater than 10 µM, respectively. In addition, the “parent compound remaining, rat liver microsomes” value in data set [3] (NADPH, 30 minutes) is 53.3%.

With `Cc1nc2c(Cl)cccc2c(O)c1CN1CCCCC1C` (stereo not shown) [CH872], the “parent compound remaining after 30 minutes, human liver microsomes” value in data set [1] is recorded as 99.6%. For the same molecule, the “theoretical half-life, human liver microsomes” value in data set [1] (first-order kinetics) was “long”. In data set [2], this molecule gave an EC50 greater than 10 µM and an IC50 greater than 10 µM. In addition, in data set [3], the “time after which completely degraded, rat liver microsomes” value was found to be 25 min and the half-life at 2 µM amounted to 4.1 min. Moreover, in data set [4], the concentration giving a half-maximal response (EC50) was greater than 10 µM and the half-inhibitory concentration (IC50) is greater than 10 µM.

As usually defined, the half-life is the time needed for the level to fall by half in the phase considered. One may read the EC50 as the concentration at which the effect is half-maximal. Read a low EC50 as a more potent agent. For orientation: IC50 means the concentration at which inhibition is half-maximal.
